Data reported in PubChem BioAssay (NCI).
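Growth conditions: 96-well plates. Treatment: test compound, 48 hours, 5 concentrations. Analysis: linear interpolation between bracketing concentrations; unreached endpoints set to highest concentration. TGI denotes the concentration required for complete inhibition of growth.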

Key:
Test in all cases: NCI tumour cell line growth inhibition, 48 h
U251 CNS = system: U251 CNS
UO-31 renal = system: UO-31 renal
NCI/ADR-RES ovarian = system: NCI/ADR-RES ovarian
T-47D breast = system: T-47D breast
SNB-75 CNS = system: SNB-75 CNS
MDA-N = system: MDA-N
KM12 colon = system: KM12 colon
EKVX NSCLC = system: EKVX NSCLC
RPMI-8226 leukemia = system: RPMI-8226 leukemia
SF-539 CNS = system: SF-539 CNS
NCI-H522 lung = system: NCI-H522 lung

Compound | TGI (U251 CNS) | TGI (UO-31 renal) | TGI (NCI/ADR-RES ovarian) | TGI (T-47D breast) | TGI (SNB-75 CNS) | TGI (MDA-N) | TGI (KM12 colon) | TGI (EKVX NSCLC) | TGI (RPMI-8226 leukemia) | TGI (SF-539 CNS) | TGI (NCI-H522 lung)
COC1=CC(=O)c2c(O)ccc(O)c2C1=O | 22.1 µM | 34.9 µM | 60.2 µM | 41.3 µM | 3.65 µM | 1.9 µM | 16.4 µM | 37.8 µM | 38.2 µM | 10.4 µM | 26 µM
Cc1cc(N(CCC#N)CCC#N)ccc1/C(N=Nc1ccccc1)=N\NC(=O)c1ccccc1 | > 100 µM | 65.1 µM | 75.5 µM | 49 µM | > 100 µM | > 100 µM | > 100 µM | > 100 µM | > 100 µM | 54.1 µM | 35.3 µM
CCCN1CN(c2ccccc2)C2(CCN(CCCC(=O)c3ccc(F)cc3)CC2)C1=O | 30.7 µM | 30.2 µM | 17.6 µM | 35 µM | 47.5 µM | 23 µM | 31 µM | 54.2 µM | 42.2 µM | 15.5 µM | 43.6 µM
c1ccc2c(c1)CCN1CCc3c([nH]c4ccccc34)C21 (stereo unspecified) | > 100 µM | > 100 µM | 56.9 µM | > 100 µM | 79 µM | 73.8 µM | > 100 µM | 82.1 µM | 55.1 µM | > 100 µM | 66 µM
CC(C)c1ccc2c(c1)C=C1OC(=O)[C@]3(C)CCC[C@@]2(C)C13 (stereo partly specified) | > 100 µM | > 100 µM | > 100 µM | > 100 µM | > 100 µM | > 100 µM | > 100 µM | > 100 µM | > 100 µM | > 100 µM | > 100 µM
NC(N)=NS(=O)(=O)c1ccc(Nc2c3ccccc3nc3c(C(=O)NC(CO)(CO)CO)cccc23)cc1 | > 100 µM | 95.2 µM | > 100 µM | > 100 µM | 18.7 µM | > 100 µM | 38.5 µM | > 100 µM | 58.5 µM |  | 30.9 µM
CC(=O)N1C(C(=O)NNc2ccccc2)CSC1c1ccccc1 (stereo unspecified) | > 100 µM | > 100 µM | > 100 µM | > 100 µM | > 100 µM | > 100 µM | > 100 µM | > 100 µM | > 100 µM | > 100 µM | > 100 µM
O=c1c2ccccc2c2c1c1c3ccccc3c(=O)c1c1c3ccccc3c(=O)c21 | > 100 µM | > 100 µM | > 100 µM | > 100 µM | > 100 µM | > 100 µM | > 100 µM | > 100 µM | > 100 µM | > 100 µM | > 100 µM
CC(=O)Nc1ccc(S(=O)(=O)[N-]C2C(=O)c3ccccc3C(=O)C2[n+]2ccccc2)cc1 (stereo unspecified) | 27.3 µM | 21.2 µM | 38.8 µM | > 100 µM | 30.1 µM | 33 µM | 27.9 µM | > 100 µM | > 100 µM | 33.3 µM | 92.7 µM
O=C1OC2c3ccccc3C(=O)C2(c2ccccc2)N1c1ccccc1 (stereo unspecified) | > 200 µM | > 200 µM | > 200 µM | > 200 µM | > 200 µM | > 200 µM | > 200 µM | > 200 µM | > 200 µM | > 200 µM | > 200 µM
COc1cc(S(=O)(=O)Nc2ccc(-c3csc(N4C(=O)C(C)SC4c4ccccc4O)n3)cc2)ccc1Cl (stereo unspecified) |  | > 100 µM | > 100 µM | 31 µM | 95.7 µM | > 100 µM | > 100 µM | > 100 µM | > 100 µM | > 100 µM | 37 µM
COc1ccc(C(=O)/C=C/c2ccc(OCC(=O)O)cc2)cc1 | 79.9 µM | > 100 µM | > 100 µM | > 100 µM | > 100 µM | > 100 µM | > 100 µM | > 100 µM | > 100 µM | > 100 µM | > 100 µM
C=CCOC(=O)CCCCCCCCCCCCCCCOC(=O)c1c(CCC[C@@H](C)O[Si](C)(C)C(C)(C)C)nc(=O)n2c1CC[C@H]2CC1(CC/C=C\[C@H](CC)O[Si](C(C)C)(C(C)C)C(C)C)OCCO1 | 31.8 µM | 61.3 µM | > 100 µM | > 100 µM | > 100 µM | > 100 µM | > 100 µM | > 100 µM | > 100 µM | > 100 µM | > 100 µM
Cn1c(=O)c2c(ncn2CCSS(=O)(=O)O)n(C)c1=O | > 100 µM | > 100 µM | > 100 µM | > 100 µM | > 100 µM | > 100 µM | > 100 µM | > 100 µM | > 100 µM | > 100 µM | > 100 µM
O=C(O)CSc1nnc(CCCCCCCCc2nnc(SCC(=O)O)o2)o1 | > 100 µM | > 100 µM | > 100 µM | > 100 µM | 73.1 µM | > 100 µM | > 100 µM | > 100 µM | > 100 µM |  | > 100 µM
OCCCCn1cc(Cn2ncc3c(SCc4ccccc4)ncnc32)nn1 | > 100 µM | > 100 µM | > 100 µM | > 100 µM | > 100 µM | 39.2 µM | > 100 µM | > 100 µM | > 100 µM | > 100 µM | > 100 µM
O=C(Nc1ccccc1)Nn1c(-c2cccs2)nc2ccc(I)cc2c1=O | 64.8 µM | 80.3 µM | > 100 µM | 17.2 µM | 25.6 µM | 74.6 µM | 94.8 µM | 58.6 µM | 51.8 µM | > 100 µM | 44.7 µM
COc1cc(-c2c3c([nH]c(=O)c2C#N)-c2cc([N+](=O)[O-])ccc2CCC3)cc(OC)c1OC | > 100 µM | 75.1 µM | > 100 µM | > 100 µM | 62.6 µM | 55 µM | > 100 µM | 70.5 µM | 52.1 µM | > 100 µM | 59 µM
CC(C)CCNC(=O)c1ccc(CNC(=O)/C=C/c2csc(-c3ccccc3)n2)cc1 | 96.8 µM | 58.6 µM | > 100 µM | > 100 µM | 41.8 µM | > 100 µM | > 100 µM | > 100 µM | > 100 µM | > 100 µM | > 100 µM
